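Cells were grown in 96-well plates and exposed to each compound for 48 hours at five concentrations; endpoints were interpolated linearly between bracketing concentrations, or set to the highest concentration if not reached. GI50 is the concentration that inhibits growth by half.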 Activity calls are given as the source filed them. Cut-off read from the data, not from the text of the source: active = GI50 up to about 1.1 µM and inactive = higher.

Among the test systems are DU-145; RPMI-8226; SK-MEL-28; OVCAR-8; SNB-19; Malme-3M; NCI-H522; 786-0; Hs-578T; EKVX; HOP-92; MOLT-4; NCI-H23; SR; HL-60; PC-3; LOX IMVI; NCI-H460; HCT-15; MDA-MB-231.
Assay in all cases: DTP human tumour cell line panel, 48 h

A word on the GI50: it is the concentration at which growth is held to half of that of the control. Take `CC(C)(C)OC(=O)c1ccc(NCc2cc(O)ccc2O)cc1`: the GI50 was 7.78 µM (inactive) in the experiment with DU-145; 0.617 µM (active) in the experiment with RPMI-8226; 2.03 µM (inactive) in the experiment with SK-MEL-28; 2.13 µM (inactive) in the experiment with OVCAR-8; 8.07 µM (inactive) with SNB-19; 1.85 µM (inactive) with Malme-3M. In addition, the GI50 was 0.24 µM (active) with NCI-H522; 2.32 µM (inactive) in the experiment on 786-0; 1.69 µM (inactive) in the experiment with Hs-578T; 2.62 µM (inactive) in the experiment with EKVX; 1.34 µM (inactive) with HOP-92; 1.03 µM (active) in the experiment on MOLT-4. The GI50 with NCI-H23 is 4.93 µM (inactive); in the experiment on SR, 0.916 µM (active); in the experiment on HL-60, 0.447 µM (active); in the experiment with PC-3, 1.5 µM (inactive); in the experiment on LOX IMVI it was 3.88 µM (inactive); in the experiment with NCI-H460, 10.7 µM (inactive). Further, the GI50 was 1.32 µM in the experiment with HCT-15 and 2.31 µM (inactive) in the experiment with MDA-MB-231.

`CC(=N\N=C\c1ccccn1)/C(C)=N/N=C/c1ccccn1`: the GI50 in the experiment on DU-145, in the experiment on RPMI-8226, in the experiment with SK-MEL-28, in the experiment with OVCAR-8, with SNB-19 and in the experiment on Malme-3M was > 100 µM (inactive) throughout. The GI50 in the experiment on NCI-H522 is > 100 µM (inactive); in the experiment with 786-0, > 100 µM (inactive); in the experiment on Hs-578T, > 100 µM (inactive); with EKVX it was > 100 µM (inactive); in the experiment on HOP-92, > 100 µM (inactive); in the experiment on MOLT-4, > 10 µM (inactive). Besides, the GI50 in the experiment with NCI-H23 was > 100 µM (inactive); in the experiment on SR, 88.5 µM (inactive); in the experiment on HL-60, > 100 µM (inactive); in the experiment with PC-3 it was > 100 µM (inactive); in the experiment on LOX IMVI, > 100 µM (inactive); with NCI-H460, > 100 µM (inactive). Besides, the GI50 in the experiment with HCT-15 is 60.8 µM; with MDA-MB-231, > 100 µM (inactive).

Turning to `COC1=C(C)C(=O)c2c(c(COC(N)=O)c3n2CC(OC(C)=O)C3OC(C)=O)C1=O` (stereo not given), the concentration for 50% growth inhibition (GI50) in the experiment with DU-145 was 0.0251 µM (active); in the experiment on RPMI-8226 it was 0.0577 µM (active); in the experiment with SK-MEL-28, 0.311 µM (active); in the experiment with OVCAR-8, 0.0789 µM (active); in the experiment on SNB-19 it was 0.433 µM (active); in the experiment on Malme-3M, 0.0493 µM (active). Besides, the GI50 is 0.0137 µM (active) in the experiment on NCI-H522; < 0.0116 µM (active) with 786-0; 0.239 µM (active) in the experiment on Hs-578T; 0.202 µM (active) with EKVX; 0.186 µM (active) in the experiment on HOP-92; 0.242 µM (active) in the experiment with MOLT-4. The GI50 in the experiment on NCI-H23 is 0.0436 µM (active); in the experiment on SR, < 0.01 µM (active); with HL-60, < 0.0192 µM (active); in the experiment on PC-3, 0.131 µM (active); with LOX IMVI it was 0.0294 µM (active); in the experiment on NCI-H460, < 0.01 µM (active). For the same compound, the concentration for 50% growth inhibition (GI50) was 0.0126 µM in the experiment with HCT-15 and 0.2 µM (active) with MDA-MB-231.

For the compound `O=C1CCN2C(=N1)Sc1ccccc12`, the GI50 in the experiment on DU-145, with RPMI-8226, in the experiment on SK-MEL-28, in the experiment with OVCAR-8, in the experiment with SNB-19 and in the experiment with Malme-3M was > 100 µM (inactive) each time. Besides, the GI50 with NCI-H522, in the experiment on 786-0, with Hs-578T, with EKVX, with HOP-92 and with MOLT-4 was > 100 µM (inactive) in each case. Besides, the GI50 in the experiment with NCI-H23, in the experiment with SR, in the experiment on HL-60, in the experiment with PC-3, in the experiment with LOX IMVI and in the experiment with NCI-H460 was > 100 µM (inactive) throughout. The GI50 with HCT-15 is over 100 µM; in the experiment with MDA-MB-231 it was > 100 µM (inactive).

Turning to `Cn1c2ccccc2c2c(-c3ccccc3)[n+]3ccccc3nc21`, the GI50 in the experiment with DU-145 is 53.3 µM (inactive); in the experiment on RPMI-8226, 17.8 µM (inactive); in the experiment with SK-MEL-28, 20.5 µM (inactive); with OVCAR-8, 36.3 µM (inactive); in the experiment on SNB-19 it was 65.8 µM (inactive); with Malme-3M it was 24.3 µM (inactive). Further, the GI50 was 25.4 µM (inactive) in the experiment on NCI-H522; 23.2 µM (inactive) in the experiment with 786-0; 34.8 µM (inactive) in the experiment with Hs-578T; 36.1 µM (inactive) in the experiment with EKVX; 14.6 µM (inactive) in the experiment on HOP-92; 42.2 µM (inactive) with MOLT-4. Besides, the GI50 with NCI-H23 is 23.2 µM (inactive); with SR, 23.9 µM (inactive); in the experiment on HL-60 it was 24.8 µM (inactive); in the experiment with PC-3, 26.2 µM (inactive); with LOX IMVI it was 18.5 µM (inactive); in the experiment with NCI-H460, 21.9 µM (inactive). In addition, the GI50 is over 100 µM in the experiment on HCT-15 and 32.9 µM (inactive) in the experiment with MDA-MB-231.

With `O=[N+]([O-])c1cc2oc(CSc3ccccc3)nc2cc1Cl`, the GI50 with DU-145 is 37.7 µM (inactive); in the experiment with RPMI-8226, 40.9 µM (inactive); in the experiment on SK-MEL-28, 35.2 µM (inactive); in the experiment with OVCAR-8, 33.5 µM (inactive); in the experiment on SNB-19, 45.1 µM (inactive); in the experiment with Malme-3M, 50 µM (inactive). Besides, the GI50 in the experiment on NCI-H522 is 29.3 µM (inactive); in the experiment with 786-0 it was 34.6 µM (inactive); with Hs-578T, 51.6 µM (inactive); in the experiment on EKVX it was 30.7 µM (inactive); with HOP-92, 26.6 µM (inactive); with MOLT-4 it was 22.3 µM (inactive). Also, the GI50 in the experiment with NCI-H23 is 26.7 µM (inactive); with SR, 33.3 µM (inactive); in the experiment with HL-60, 30.3 µM (inactive); with PC-3 it was 48 µM (inactive); with LOX IMVI, 35.3 µM (inactive); in the experiment with NCI-H460 it was 26.7 µM (inactive). Moreover, the GI50 in the experiment on HCT-15 was 19.2 µM; in the experiment on MDA-MB-231, 32.2 µM (inactive).

As for `CC(CSc1nc2c(c(=N)n1-c1ccccc1)c(=S)n(-c1ccccc1)c(=S)n2-c1ccccc1)CN(C)C` (stereo not given), the GI50 in the experiment with DU-145 was 1.66 µM (inactive); in the experiment with RPMI-8226 it was 0.335 µM (active); in the experiment with SK-MEL-28, 2.12 µM (inactive); in the experiment with OVCAR-8, 1.6 µM (inactive); in the experiment on SNB-19, 4.65 µM (inactive); in the experiment on Malme-3M, 1.71 µM (inactive). Moreover, the GI50 in the experiment with NCI-H522 is 1.11 µM (active); with 786-0, 1.15 µM (inactive); in the experiment with Hs-578T it was 2.5 µM (inactive); in the experiment with EKVX, 1.66 µM (inactive); in the experiment with HOP-92 it was 1.56 µM (inactive); in the experiment on MOLT-4 it was 0.931 µM (active). Moreover, the GI50 with NCI-H23 is 2.2 µM (inactive); in the experiment with SR it was 0.558 µM (active); in the experiment with HL-60, 0.615 µM (active); in the experiment on PC-3, 1.87 µM (inactive); in the experiment with LOX IMVI it was 1.05 µM (active); in the experiment with NCI-H460, 1.97 µM (inactive). In addition, the results for the concentration for 50% growth inhibition (GI50) in the experiment with HCT-15 and in the experiment with MDA-MB-231 were 1.55 µM and 1.87 µM (inactive), respectively.

`O=[N+]([O-])c1ccc(CSCc2ccc(Cl)cc2)cc1`: the GI50 was > 100 µM (inactive) with DU-145; 55.7 µM (inactive) in the experiment on RPMI-8226; > 100 µM (inactive) in the experiment on SK-MEL-28; > 100 µM (inactive) in the experiment on OVCAR-8; > 100 µM (inactive) in the experiment with SNB-19; > 100 µM (inactive) in the experiment with Malme-3M. Besides, the GI50 was 20 µM (inactive) with NCI-H522; > 100 µM (inactive) in the experiment with 786-0; > 100 µM (inactive) in the experiment with Hs-578T; > 100 µM (inactive) in the experiment on EKVX; 47.8 µM (inactive) in the experiment on HOP-92; 17.5 µM (inactive) with MOLT-4. For the same compound, the GI50 in the experiment on NCI-H23 was > 100 µM (inactive); in the experiment with SR it was 23.8 µM (inactive); in the experiment with HL-60 it was 33.1 µM (inactive); in the experiment on PC-3, > 100 µM (inactive); in the experiment on LOX IMVI, > 100 µM (inactive); in the experiment with NCI-H460, > 100 µM (inactive). In addition, the GI50 in the experiment with HCT-15 is over 100 µM; in the experiment with MDA-MB-231 it was > 100 µM (inactive).

As for `CN(CC(=O)O)c1ncc2c(n1)CCCC2`, the GI50 in the experiment with DU-145, in the experiment with RPMI-8226, in the experiment with SK-MEL-28, in the experiment on OVCAR-8, with SNB-19 and with Malme-3M was > 100 µM (inactive) throughout. For the same compound, the GI50 in the experiment with NCI-H522, with 786-0, with Hs-578T, in the experiment with EKVX, in the experiment on HOP-92 and in the experiment with MOLT-4 was > 100 µM (inactive) each time. Moreover, the GI50 in the experiment on NCI-H23, in the experiment on SR, in the experiment with HL-60, in the experiment with PC-3, in the experiment with LOX IMVI and with NCI-H460 was > 100 µM (inactive) throughout. Also, the 50% growth inhibitory concentration (GI50) was over 100 µM with HCT-15 and > 100 µM (inactive) in the experiment with MDA-MB-231.

(Values after ChEMBL document CHEMBL1201862, “PubChem BioAssay data set” (2004).)
